Earlier results in US6399099B1, “Effervescent composition with dry extract of ginkgo biloba” (Dr. Willmar Schwabe GmbH & Co., priority 1995, dated 2002).

Conditions: neutral or slightly basic aqueous medium

In the case of `CC(C)(C)[C@]1(O)CC2OC(=O)CC23C(=O)OC2OC(=O)[C@H](O)C231` (stereo partly shown) [bilobalide], the “stability in aqueous medium” value is given as “not stable”.
